Data published in patent US9682060B2, “Small molecules that induce intrinsic pathway apoptosis” (The Board of Trustees of the University of Illinois, priority 2015, dated 2017).
Like-named read-outs stand apart in the source and are kept apart here. Starred links: 1 amine or outer side, 2 acyl side, 3 side chain; linkers in the order of their positions; H or OH if unused. Positions of bridges follow the written chain, without caps; N, C: chain ends. Non-standard residues stand in square brackets, D forms with d. Residues, ends and D or L forms follow the SMILES beside them. Chains are numbered I, II in the order given. Actinocin(9to1) = Cc1c2oc3c(C)ccc(C(=O)[*:1])c3nc-2c(C(=O)[*:2])c(N)c1=O; NMeV = CN[C@H](C(=O)O)C(C)C; Sar = CNCC(=O)O

Legend:
U-937 cells [1] = experiment: Annexin V/PI cell viability analysis
[2] = test system: adherent cell lines (HOS, H1993, SK-MEL-5, MIA PaCa-2); experiment: Adherent cell lines: cell death by AV/PI staining and immunoblots; format: cell-based, Human; conditions: adherent cell lines; 10 μM (FIG. 1G)
U-937 cells [3] = experiment: Protection assays using small molecule inhibitors (protection from Raptinal, AV/PI); format: cell-based, Human; conditions: U-937 cells pretreated 2 hours with agent (concentrations of Table 3), then 10 μM Raptinal 2 hours
Protocol: Protection Assays Using Small Molecule Inhibitors.
. The cells were then co-treated with Raptinal at 10 μM for 2 hours prior to analysis by propidium iodide/FITC-annexin V staining and flow cytometry.

[4] = test system: cancer cell lines (HL-60, SK-MEL-5, U-937); experiment: Initial screens against cancer cell lines; format: cell-based, Human; conditions: cancer cells treated 1 hour, extensive washing to remove compound, read at 24-hour mark
U-937 cells [5] = format: cell-based, Human; conditions: 20 minute treatment, dihydroethidium, flow cytometry
Protocol: Measurement of Cellular ROS Production.
U-937 cells (1 mL of 5×10^5 cells/mL) in Hank's buffered salt solution (HBSS) containing 5 mM glucose were treated with DMSO, 2 or 10 μM Raptinal, 10 μM thapsigargin, 100 μM etoposide (1% DMSO final) and incubated in the presence of 5 μM dihydroethidium a 37° C., 5% CO2 incubator for 20 minutes. […]. The levels of ethidium were assessed by flow cytometry. Live cells were analyzed based on gating on the forward and side scatter properties and the geometric mean of ethidium staining was determined using the software FCS Express.

[6] = U-937 cells, 10 μM, time course AV/PI, based on data in FIG. 1F

| Compound | Time to 50% death (U-937 cells [1]; [6]) | protection from Raptinal-induced cell death (U-937 cells [3]) | other results |
| --- | --- | --- | --- |
| CC[C@@]1(O)C(=O)OCc2c1cc1n(c2=O)Cc2cc3ccccc3nc2-1 [Camptothecin] | 5 h | – | – |
| CN[C@@H]1C[C@H]2O[C@@](C)([C@@H]1OC)n1c3ccccc3c3c4c(c5c6ccccc6n2c5c31)C(=O)NC4 [Staurosporine] | 5 h | – | time of apoptotic death (U-937 cells [1]; U-937 cells, 10 μM (FIG. 1F)): 6 to 12 h; time of apoptotic death [2]: > 24 h |
| Antimycin A | >36 h | significant to quantitative protection | – |
| Tunicamycin | 24 h | – | – |
| O=S(=O)(O)c1cc(N=C=S)ccc1C=Cc1ccc(N=C=S)cc1S(=O)(=O)O [DIDS] | – | significant protection | – |
| CC(C)[C@H](NC(=O)c1ccc2ccccc2n1)C(=O)N[C@@H](CC(=O)O)C(=O)COc1c(F)cccc1F [Q-VD-OPh] | – | quantitatively blocked the loss in cell viability | – |
| COc1[nH]c(=O)c(C(=O)[C@@H](C)C[C@H](C)[C@@H](Cl)CCl)c(O)c1OC [atpenin A5] | – | did not confer significant protection | – |
| COC1=C2C[C@@H](C)C[C@H](OC)[C@H](O)[C@@H](C)/C=C(\C)[C@H](OC(N)=O)[C@@H](OC)/C=C\C=C(/C)C(=O)NC(=CC1=O)C2=O [Geldanamycin] | >36 h | – | – |
| O=C(CC(=O)C(F)(F)F)c1cccs1 [TTFA] | – | did not confer significant protection | – |
| CC[C@]1(O)C[C@H]2CN(CCc3c([nH]c4ccccc34)[C@@](C(=O)OC)(c3cc4c(cc3OC)N(C=O)[C@H]3[C@@](O)(C(=O)OC)[C@H](OC(C)=O)[C@]5(CC)C=CCN6CC[C@]43[C@@H]65)C2)C1 [Vincristine] | 14 h | – | – |
| COc1cc2c(c(OC)c1OC)-c1ccc(OC)c(=O)cc1[C@@H](NC(C)=O)CC2 [Colchicine] | – | – | Time to 50% death (U-937 cells [1]): 15 h |
| C[C@@H]1C[C@@H]([C@H](O)CC2CC(=O)NC(=O)C2)C(=O)[C@@H](C)C1 [cycloheximide] | – | did not prevent or delay Raptinal-induced apoptosis | – |
| CO[C@H]1C[C@@H]2CC[C@@H](C)[C@@](O)(O2)C(=O)C(=O)N2CCCC[C@H]2C(=O)O[C@H]([C@H](C)C[C@@H]2CC[C@@H](O)[C@H](OC)C2)CC(=O)[C@H](C)/C=C(\C)[C@@H](O)[C@@H](OC)C(=O)[C@H](C)C[C@H](C)/C=C/C=C/C=C/1C [Rapamycin] | >36 h | – | – |
| CC(=O)O[C@H]1C(=O)[C@@]2(C)[C@H]([C@H](OC(=O)c3ccccc3)[C@]3(O)C[C@H](OC(=O)[C@H](O)[C@@H](NC(=O)c4ccccc4)c4ccccc4)C(C)=C1C3(C)C)[C@]1(OC(C)=O)CO[C@@H]1C[C@@H]2O [Paclitaxel, reference compound] | 18 h | – | cell death after short treatment and washout [4]: do not have a similar effect |
| c1ccc(CN(CCN(Cc2ccccn2)Cc2ccccn2)Cc2ccccn2)nc1 [TPEN] | 12 h | – | – |
| N.N.[Cl][Pt][Cl] [Cisplatin, reference compound] | >36 h | – | cell death after short treatment and washout [4]: do not have a similar effect |

| Compound | Time to 50% death (U-937 cells [1]; [6]) | protection from Raptinal-induced cell death (U-937 cells [3]) | other results |
| --- | --- | --- | --- |
| CC[C@@H]1/C=C/C=C/C[C@H](C)[C@H](O)[C@](C)(O)C(=O)[C@H](C)[C@@H](O)[C@H](C)C(=O)[C@H](C)[C@@H](O)[C@H](C)/C=C/C(=O)O[C@H]2[C@@H](C)[C@@H](CC1)O[C@@]1(CC[C@@H](C)[C@@H](C[C@H](C)O)O1)[C@@H]2C [oligomycin A] | – | significant to quantitative protection | – |
| CN[C@@H](C)C(=O)N[C@H]1CCCC[C@H]2CC[C@@H](C(=O)N[C@@H](c3ccccc3)c3cn(CCCCc4ccc(CCCCn5cc([C@@H](NC(=O)[C@@H]6CC[C@@H]7CCCC[C@H](NC(=O)[C@H](C)NC)C(=O)N76)c6ccccc6)nn5)cc4)nn3)N2C1=O [SM-164] | >36 h | – | – |
| C=CCc1cccc(/C=N/NC(=O)CN2CCN(Cc3ccccc3)CC2)c1O [PAC-1] | >36 h | – | – |
| Cc1cc2c(C(C)C)c(O)c(O)c(C=O)c2c(O)c1-c1c(C)cc2c(C(C)C)c(O)c(O)c(C=O)c2c1O [Gossypol] | 36 h | – | – |
| COc1cc([C@@H]2c3cc4c(cc3[C@@H](O[C@@H]3O[C@@H]5CO[C@@H](C)O[C@H]5[C@H](O)[C@H]3O)[C@H]3COC(=O)[C@H]23)OCO4)cc(OC)c1O [Etoposide, reference compound] | 5 h | – | production of reactive oxygen species (superoxide anion radicals) (U-937 cells [5]): not |
| C/C=C(/C)C(=O)O[C@H]1C(C)=C2[C@H]([C@@H]1OC(=O)CCCCCCC)[C@@](C)(OC(C)=O)C[C@H](OC(=O)CCC)[C@@]1(O)[C@H]2OC(=O)[C@@]1(C)O [Thapsigargin, reference compound] | 14 h | – | production of reactive oxygen species (superoxide anion radicals) (U-937 cells [5]): rapid accumulation of superoxide anion radicals |
| COc1cccc2c1C(=O)c1c(O)c3c(c(O)c1C2=O)C[C@@](O)(C(=O)CO)C[C@@H]3O[C@H]1C[C@H](N)[C@H](O)[C@H](C)O1 [Doxorubicin] | 6 h | – | – |
| O=C1C(=O)N(Cc2ccc(Cl)c(Cl)c2)c2ccccc21 [AA2] | >36 h | – | – |
| Cc1cc(=O)[nH]c2c1C(=O)c1c(C)cc(=O)n(C)c1C2=O [DNQ] | 6 h | – | – |
| CN(NC(=O)CC(=O)NN(C)C(=S)c1ccccc1)C(=S)c1ccccc1 [Elesclomol] | >36 h | – | – |
| N#CC(C#N)=NNc1ccc(OC(F)(F)F)cc1 [FCCP] | – | significant to quantitative protection | – |
| C=C(C)[C@H]1Cc2c(ccc3c2O[C@@H]2COc4cc(OC)c(OC)cc4[C@@H]2C3=O)O1 [Rotenone] | 20 h | significant to quantitative protection | – |
| CO[C@@]12[C@H](COC(N)=O)C3=C(C(=O)C(C)=C(N)C3=O)N1C[C@@H]1N[C@@H]12 [Mitomycin C] | 20 h | – | – |
| CCOC(=O)C1=C(N)Oc2ccc(Br)cc2C1C(C#N)C(=O)OCC (stereo not drawn) [HA-141] | >36 h | – | – |
| Cc1c2oc3c(C)ccc(C(=O)N[C@@H]4C(=O)N[C@H](C(C)C)C(=O)N5CCC[C@H]5C(=O)N(C)CC(=O)N(C)[C@@H](C(C)C)C(=O)O[C@@H]4C)c3nc-2c(C(=O)N[C@@H]2C(=O)N[C@H](C(C)C)C(=O)N3CCC[C@H]3C(=O)N(C)CC(=O)N(C)[C@@H](C(C)C)C(=O)O[C@@H]2C)c(N)c1=O [actinomycin D] (I: T[dV]P[Sar][NMeV] / II: T[dV]P[Sar][NMeV]; ester I:1-I:C, II:1-II:C; linker I:N-II:N via Actinocin(9to1)) | – | did not prevent or delay Raptinal-induced apoptosis | – |
